Experimental data reported in patent US12643867B2, “Compositions and uses thereof” (University of Virginia Patent Foundation, priority 2017, dated 2026).

Target: T1, DGKQ (Diacylglycerol kinase theta) (Homo sapiens, UniProt P52824)
T1 construct: expressed in transfected cells; host or cells: SILAC HEK293T
T1 sequence (P52824 1-942): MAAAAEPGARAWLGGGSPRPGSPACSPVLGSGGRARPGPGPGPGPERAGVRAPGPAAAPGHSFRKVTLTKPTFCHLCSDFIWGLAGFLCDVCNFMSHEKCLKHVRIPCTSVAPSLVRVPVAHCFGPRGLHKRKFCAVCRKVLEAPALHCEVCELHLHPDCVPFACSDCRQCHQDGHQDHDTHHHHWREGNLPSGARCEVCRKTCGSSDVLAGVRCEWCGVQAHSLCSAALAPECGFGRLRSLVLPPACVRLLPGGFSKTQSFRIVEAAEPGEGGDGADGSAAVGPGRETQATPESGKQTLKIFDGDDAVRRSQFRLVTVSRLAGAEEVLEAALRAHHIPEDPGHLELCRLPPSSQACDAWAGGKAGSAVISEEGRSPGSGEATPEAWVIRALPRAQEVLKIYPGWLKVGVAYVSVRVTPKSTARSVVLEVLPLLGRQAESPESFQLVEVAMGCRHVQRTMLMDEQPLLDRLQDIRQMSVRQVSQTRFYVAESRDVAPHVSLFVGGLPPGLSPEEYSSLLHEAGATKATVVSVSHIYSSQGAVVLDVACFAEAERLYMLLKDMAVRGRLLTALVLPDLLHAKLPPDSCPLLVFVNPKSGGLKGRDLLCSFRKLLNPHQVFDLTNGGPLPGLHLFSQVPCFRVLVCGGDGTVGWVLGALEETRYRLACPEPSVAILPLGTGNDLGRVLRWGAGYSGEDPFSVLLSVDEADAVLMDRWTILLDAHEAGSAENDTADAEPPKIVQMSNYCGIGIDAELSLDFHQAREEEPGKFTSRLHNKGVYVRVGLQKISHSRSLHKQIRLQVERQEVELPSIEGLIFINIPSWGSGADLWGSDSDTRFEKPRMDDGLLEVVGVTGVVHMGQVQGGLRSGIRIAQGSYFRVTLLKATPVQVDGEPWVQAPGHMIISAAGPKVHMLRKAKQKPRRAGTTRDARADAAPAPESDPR
Assay: SILAC LC-MS ATP acyl phosphate probe competition, recombinant DGK-HEK293T lysates
Assay type: binding
Conditions: ATP 1 mM, Ketanserin, Ritanserin 100 μM, RF001 1 mM; for SILAC ratio, DGKQ C1 probe-modified peptide: site C1 (K202); for SILAC ratio, DGKQ DAGKa probe-modified peptide: site DAGKa (K768); for SILAC ratio, DGKQ DAGKc probe-modified peptide: site DAGKc (K596)
Excerpt: Recombinant DGK proteins were produced by transient transfection of HEK293T cells with recombinant DNA. pDONR223-DGKK was a gift from William Hahn & David Root (Addgene plasmid #23487). pCSF107mT-GATEWAY-3′-FLAG was a gift from Todd Stukenberg (Addgene plasmid #67619). pCSF107mT-DGKK-FLAG construct was generated by recombination of the Addgene plasmids using the Gateway cloning system (Invitrogen). All other vectors were gifted to Dr. Kevin Lynch (University of Virginia, School of Medicine) by Dr. Kaoru Goto (Yamagata University, School of Medicine) and Dr. Fumio Sakane (Chiba University) and were kindly shared with us: pcDNA3-FLAG-DGKA (rat), pCMV-Tag2B-FLAG-DGKQ (human), pcDNA3-DGKE-3×Flag (human), and pCMV-SPORT6-HA-DGKZ (human). HEK293T cells were plated at a concentration of 400,000 cells in complete DMEM and grown to 50-60% confluency. A polyethyleneimine (PEI) stock solution was prepared (1 mg/mL, pH 7.4) and filter sterilized. Serum-free DMEM (600 μL) was mixed gently with 2.6 μg DNA and 20 μL of sterile PEI (1 mg/mL, pH 7.4) in a sterile microfuge tube. Mixtures were incubated for 30 min at 25° C. The mixture was then added drop-wise to each 10 cm^2 plate, rocked back and forth to mix, and placed back in the incubator. Cell pellets were harvested after two full days of growth, snap-frozen in liquid N2, and stored at −80° C. until use. Recombinant proteins were produced by transient transfection in SILAC HEK293T cells using the procedure described above, except that cells were plated at a concentration of 1×10^6 cells per 10 cm^2 plate and grown to ˜70% confluency prior to introducing transfection mixture.
Proteomes were diluted to 2 mg/ml in kinase buffer. The light and heavy proteomes (0.5 mg, 250 μL total reaction volume) were pre-treated with vehicle or compound, respectively (5 μL, DMSO (light) or 50× stock in DMSO (heavy)), mixed gently, and incubated at 25° C. for 30 min. […] After incubation, matched light and heavy proteomes were transferred and mixed in a 1:1 ratio in a two-dram vial containing 4:1:3 MeOH/CHCl3/H2O (2 mL MeOH, 500 AL CHCl3, 1.5 mL H2O) for extraction of proteins to remove excess probe, quickly vortexed, and centrifuged at 1,400×g for 3 min to pellet protein. Organic and aqueous layers were removed using a Pasteur pipette, and the protein pellet was transferred to a screw-top tube in 600 μL MeOH. A second extraction was performed by adding CHCl3 (150 μL) and H2O (600 μL) to each sample, vortexed, and centrifuged at 1,400×g for 3 min to pellet protein. Organic and aqueous layers were removed by pipetting. MeOH added to pellet (600 μL) and pellets were re-suspended by sonication (3×1 sec pulse, 20% amplitude) for a final extraction. Samples were then centrifuged at 17,000×g for 5 min to pellet protein and MeOH was removed by pipetting. The pellets were re-suspended in 10 M urea/25 mM ammonium bicarbonate ([…]), brought to a final volume of 1 mL with 25 mM ammonium bicarbonate, reduced with 10 mM DTT for 15 min at 65° C. allowed to cool, and then alkylated with 40 mM iodoacetamide for 30 min at 25° C. in the dark. To desalt the samples, each was transferred to a two-dram glass vial, and to the vial 4:1:2 MeOH/CHCl3/H2O (2 mL MeOH, 500 AL CHCl3, 1 mL H2O) was added. The vials were vortexed quickly, spun at 1.400×g for 3 min to pellet protein, and aqueous and organic layers were removed using a Pasteur pipette. The resulting protein pellet was transferred to a screw-top tube in 600 μL MeOH, and then CHCl3 (150 μL) and HO (600 μL) were added to extract protein a second time. The samples were vortexed quickly, centrifuged at 1,400×g to pellet protein, and the aqueous and organic layers were removed by pipetting. Resulting protein pellet was suspended in MeOH (600 μL) via sonication (3×1 sec pulse, 20% amplitude), centrifuged at 17,000×g for 5 min to pellet protein, and MeOH removed by pipetting. […]

SILAC ratio, DGKQ C1 probe-modified peptide	SILAC ratio, DGKQ DAGKa probe-modified peptide	SILAC ratio, DGKQ DAGKc probe-modified peptide	SMILES
0.9	1.1	1.2	O=C(c1ccc(F)cc1)C1CCN(CCn2c(=O)[nH]c3ccccc3c2=O)CC1 [Ketanserin]
0.7	1.2	0.9	Fc1ccc(C(=C2CCNCC2)c2ccc(F)cc2)cc1 [RF001, 4-(Bis(4-fluorophenyl)methylene) piperidine]

SMILES	SILAC ratio, DGKQ C1 probe-modified peptide	SILAC ratio, DGKQ DAGKa probe-modified peptide	SILAC ratio, DGKQ DAGKc probe-modified peptide
Cc1nc2sccn2c(=O)c1CCN1CCC(=C(c2ccc(F)cc2)c2ccc(F)cc2)CC1 [Ritanserin]	1.3	1.4	1.1
